The text below walks through data of US20240336574A1 (LATIGO BIOTHERAPEUTICS, INC., priority 2021, published 2024).

Molecules are shown by their SMILES. Like-named read-outs stand apart in the source and are kept apart here. Bounds are passed on as bounds.

The assay concerns the target T1, recombinant human NaV1.8 stably transfected HEK cells (Homo sapiens, UniProt Q9Y5Y9).
T1 construct: expressed in transfected cells; host or cells: HEK cells, stably transfected
In words: Compound profiling on NaV1.8, human NaV1.8 cell line, SyncroPatch384PE automated patch clamp assay (Example 102, first set of compounds, Table 16). Particulars: human NaV1.8 HEK cells, Table 16 (first set of compounds). It is filed as cell-based. A digest of the protocol:
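IC50s come from two read-outs: resting-state block (P1, 10 mV step from −120 mV) and inactivated-state block (P2, after 10 s at −40 mV), scaled between DMSO and 250 μM tetracaine. Compounds (20–0.001 μM final, 1:3 steps) were applied for 5 min, 15 s sweeps. Cells kept at 30 °C the day before.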

Where [1] appears, read: inactivated state block (P2 measurement), read-out: P2IC50.
Setting [2] is: resting state block (P1 measurement), read-out: P1IC50.

T1 sequence (Q9Y5Y9 whole entry): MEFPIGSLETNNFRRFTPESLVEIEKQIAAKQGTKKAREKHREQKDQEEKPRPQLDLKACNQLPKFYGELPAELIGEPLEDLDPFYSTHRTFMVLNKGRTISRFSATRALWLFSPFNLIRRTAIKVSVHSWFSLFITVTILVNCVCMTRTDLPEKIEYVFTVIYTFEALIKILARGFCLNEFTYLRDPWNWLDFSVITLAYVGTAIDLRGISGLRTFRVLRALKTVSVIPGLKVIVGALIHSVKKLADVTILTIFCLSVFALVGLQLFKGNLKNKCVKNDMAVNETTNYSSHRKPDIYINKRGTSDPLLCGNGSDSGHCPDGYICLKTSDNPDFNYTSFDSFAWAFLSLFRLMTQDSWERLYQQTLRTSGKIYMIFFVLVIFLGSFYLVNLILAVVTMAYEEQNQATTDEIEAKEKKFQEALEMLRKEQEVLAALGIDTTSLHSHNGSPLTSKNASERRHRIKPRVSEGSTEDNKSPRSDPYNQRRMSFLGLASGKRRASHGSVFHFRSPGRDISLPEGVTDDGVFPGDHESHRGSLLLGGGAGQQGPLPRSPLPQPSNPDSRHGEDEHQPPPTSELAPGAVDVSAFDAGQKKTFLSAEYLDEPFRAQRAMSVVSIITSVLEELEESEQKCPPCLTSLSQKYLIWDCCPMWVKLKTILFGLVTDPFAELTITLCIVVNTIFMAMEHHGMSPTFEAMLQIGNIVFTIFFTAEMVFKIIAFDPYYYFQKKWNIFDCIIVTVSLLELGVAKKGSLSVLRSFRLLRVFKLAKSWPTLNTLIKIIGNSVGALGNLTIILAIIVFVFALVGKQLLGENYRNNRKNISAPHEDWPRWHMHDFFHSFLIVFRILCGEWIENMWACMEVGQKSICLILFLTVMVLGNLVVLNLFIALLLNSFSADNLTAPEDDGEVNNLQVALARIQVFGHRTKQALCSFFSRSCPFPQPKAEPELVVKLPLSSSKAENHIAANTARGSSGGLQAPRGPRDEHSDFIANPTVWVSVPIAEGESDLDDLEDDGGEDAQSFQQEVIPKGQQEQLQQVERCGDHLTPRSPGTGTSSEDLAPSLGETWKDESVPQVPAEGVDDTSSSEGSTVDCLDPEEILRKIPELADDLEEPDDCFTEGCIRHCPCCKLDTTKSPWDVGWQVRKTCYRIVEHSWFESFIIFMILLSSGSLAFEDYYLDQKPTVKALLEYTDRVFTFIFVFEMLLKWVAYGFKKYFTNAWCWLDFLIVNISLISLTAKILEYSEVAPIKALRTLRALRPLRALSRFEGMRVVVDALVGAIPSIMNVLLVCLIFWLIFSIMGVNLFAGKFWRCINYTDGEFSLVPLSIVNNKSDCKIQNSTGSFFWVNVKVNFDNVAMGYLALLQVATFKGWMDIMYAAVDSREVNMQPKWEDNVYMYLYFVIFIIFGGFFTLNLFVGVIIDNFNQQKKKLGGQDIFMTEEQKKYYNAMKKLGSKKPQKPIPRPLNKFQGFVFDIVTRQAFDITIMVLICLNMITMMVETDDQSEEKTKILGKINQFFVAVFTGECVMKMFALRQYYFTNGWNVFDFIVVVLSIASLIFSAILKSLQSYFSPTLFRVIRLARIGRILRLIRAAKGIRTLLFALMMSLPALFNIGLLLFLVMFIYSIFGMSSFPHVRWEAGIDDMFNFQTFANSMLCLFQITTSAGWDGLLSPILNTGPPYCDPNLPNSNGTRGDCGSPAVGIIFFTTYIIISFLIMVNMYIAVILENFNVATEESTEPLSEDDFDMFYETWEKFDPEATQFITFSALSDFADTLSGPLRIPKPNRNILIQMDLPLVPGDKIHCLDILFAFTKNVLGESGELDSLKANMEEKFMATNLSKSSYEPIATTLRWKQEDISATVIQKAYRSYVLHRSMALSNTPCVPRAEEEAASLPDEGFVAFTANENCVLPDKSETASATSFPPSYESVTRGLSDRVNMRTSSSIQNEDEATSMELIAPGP

As for `COc1cc(C#N)ccc1Oc1nnc(C(F)(F)F)c(C)c1C(=O)Nc1ccc(OC)c(C(N)=O)c1` [Compound 1541, N-(3-carbamoyl-4-methoxy-phenyl)-3-(4-cyano-2-methoxy-phenoxy)-5-methyl-6-(trifluoromethyl)pyridazine-4-carboxamide], the IC50 under setting [1] is 0.2 to 0.5 µM and the IC50 under setting [2] lay within 0.2 to 0.5 µM.
For the molecule `COc1cc(C#N)ccc1Oc1nnc(C(F)(F)F)c(C)c1C(=O)Nc1cccc(C(=O)NS(C)(=O)=O)c1` [Compound 1542, 3-(4-cyano-2-methoxy-phenoxy)-5-methyl-N-[3-(methylsulfonylcarbamoyl)phenyl]-6-(trifluoromethyl)pyridazine-4-carboxamide], the IC50 under setting [1] lay within 0.2 to 0.5 µM and the IC50 under setting [2] was 0.2 to 0.5 µM.
As for `COc1cc(C#N)ccc1Oc1nnc(C(F)(F)F)c(C)c1C(=O)Nc1cccnc1` [Compound 1543, 3-(4-cyano-2-methoxy-phenoxy)-5-methyl-N-(3-pyridyl)-6-(trifluoromethyl)pyridazine-4-carboxamide], the IC50 lay in the range of 0.04 to 0.2 µM under setting [1] and 0.04 to 0.2 µM under setting [2].
Consider `COc1cc(C#N)ccc1Oc1nnc(C(F)(F)F)c(C)c1C(=O)Nc1ccc[n+]([O-])c1` [Compound 1544, 3-(4-cyano-2-methoxy-phenoxy)-5-methyl-N-(1-oxidopyridin-1-ium-3-yl)-6-(trifluoromethyl)pyridazine-4-carboxamide], for which the IC50 by setting is: under setting [1], 0.02 to 0.04 µM; under setting [2], 0.04 to 0.2 µM.
For `CO/N=C(\C)c1cccc(NC(=O)c2c(Oc3ccc(C#N)cc3OC)nnc(C(F)(F)F)c2C)c1` [Compound 1545, 3-(4-cyano-2-methoxy-phenoxy)-N-[3-[(E)-N-methoxy-C-methyl-carbonimidoyl]phenyl]-5-methyl-6-(trifluoromethyl)pyridazine-4-carboxamide] the same measures were 0.2 to 0.5 µM and 0.2 to 0.5 µM.
The like results for `COC(=O)c1cccc(NC(=O)c2c(Oc3ccc(C#N)cc3OC)nnc(C(F)(F)F)c2C)c1` [Compound 1546, methyl 3-[[3-(4-cyano-2-methoxy-phenoxy)-5-methyl-6-(trifluoromethyl)pyridazine-4-carbonyl]amino]benzoate] were, in that order, 0.04 to 0.2 µM and 0.04 to 0.2 µM.
For `Cc1cc(F)ccc1Oc1nnc(C(C)O)c(C)c1C(=O)Nc1cccc(S(C)(=N)=O)c1` (stereo not drawn) [Compound 1547, 3-(4-fluoro-2-methyl-phenoxy)-6-(1-hydroxyethyl)-5-methyl-N-[3-(methylsulfonimidoyl)phenyl]pyridazine-4-carboxamide] the same measures were 0.2 to 0.5 µM and 0.2 to 0.5 µM.
With `COc1cc(C#N)ccc1Oc1nnc(C(F)(F)F)c(C)c1C(=O)Nc1cccc(C#N)c1` [Compound 1548, 3-(4-cyano-2-methoxy-phenoxy)-N-(3-cyanophenyl)-5-methyl-6-(trifluoromethyl)pyridazine-4-carboxamide], the IC50 is, setting by setting: under setting [1], 0.02 to 0.04 µM; under setting [2], 0.02 to 0.04 µM.
In the case of `COc1c(Oc2nnc(C(F)(F)F)c(C)c2C(=O)Nc2cccc(C(N)=O)c2)ccc(F)c1F` [Compound 1549, N-(3-carbamoylphenyl)-3-(3,4-difluoro-2-methoxy-phenoxy)-5-methyl-6-(trifluoromethyl)pyridazine-4-carboxamide], the IC50 runs as follows: under setting [1], not above 0.02 µM; under setting [2], not above 0.02 µM.
For `COc1nc(C2CC2)ccc1Oc1nnc(C(F)(F)F)c(C)c1C(=O)Nc1cccc(S(C)(=N)=O)c1` (stereo not drawn) [Compound 1550, 3-[(6-cyclopropyl-2-methoxy-3-pyridyl)oxy]-5-methyl-N-[3-(methylsulfonimidoyl)phenyl]-6-(trifluoromethyl)pyridazine-4-carboxamide], the IC50 runs as follows: under setting [1], not above 0.02 µM; under setting [2], not above 0.02 µM.
With `COc1c(Oc2nnc(C(F)(F)F)c(C)c2C(=O)Nc2ccn3nnnc3c2)ccc(F)c1F` [Compound 1551, 3-(3,4-difluoro-2-methoxy-phenoxy)-5-methyl-N-(tetrazolo[1,5-a]pyridin-7-yl)-6-(trifluoromethyl)pyridazine-4-carboxamide], the IC50 was not above 0.02 µM under setting [1] and not above 0.02 µM under setting [2].
In the case of `COc1c(Oc2nnc(C(F)(F)F)c(C)c2C(=O)Nc2cccc(S(C)(=O)=O)c2)ccc(Cl)c1F` [Compound 1552, 3-(4-chloro-3-fluoro-2-methoxy-phenoxy)-5-methyl-N-(3-methylsulfonylphenyl)-6-(trifluoromethyl)pyridazine-4-carboxamide], the IC50 runs as follows: under setting [1], not above 0.02 µM; under setting [2], not above 0.02 µM.
As to `Cc1cc(F)ccc1Oc1nncc(C)c1C(=O)Nc1cccc(S(C)(=N)=O)c1` (stereo not drawn) [Compound 1553, 3-(4-fluoro-2-methyl-phenoxy)-5-methyl-N-[3-(methylsulfonimidoyl)phenyl]pyridazine-4-carboxamide], the IC50 under setting [1] is 0.2 to 0.5 µM and the IC50 under setting [2] was in the range of 0.2 to 0.5 µM.
Regarding `COc1cc(C#N)ccc1Oc1nnc(C2=CCN(C(C)=O)CC2)c(C)c1C(=O)Nc1cccc(S(C)(=N)=O)c1` (stereo not drawn) [Compound 1554, 6-(1-acetyl-3,6-dihydro-2H-pyridin-4-yl)-3-(4-cyano-2-methoxy-phenoxy)-5-methyl-N-[3-(methylsulfonimidoyl)phenyl]pyridazine-4-carboxamide], the IC50 lay within 0.2 to 0.5 µM under setting [1] and 0.2 to 0.5 µM under setting [2].
For the molecule `COc1cc(C#N)ccc1Oc1nnc(C2=CCN(C)CC2)c(C)c1C(=O)Nc1cccc(S(C)(=N)=O)c1` (stereo not drawn) [Compound 1555, 3-(4-cyano-2-methoxy-phenoxy)-5-methyl-6-(1-methyl-3,6-dihydro-2H-pyridin-4-yl)-N-[3-(methylsulfonimidoyl)phenyl]pyridazine-4-carboxamide], the IC50 by setting is: under setting [1], 0.2 to 0.5 µM; under setting [2], 0.2 to 0.5 µM.
`COc1cc(C#N)ccc1Oc1nnc(C2=CCOC2)c(C)c1C(=O)Nc1cccc(S(C)(=N)=O)c1` (stereo not drawn) [Compound 1556, 3-(4-cyano-2-methoxy-phenoxy)-6-(2,5-dihydrofuran-3-yl)-5-methyl-N-[3-(methylsulfonimidoyl)phenyl]pyridazine-4-carboxamide]: the IC50 was 0.04 to 0.2 µM under setting [1] and 0.04 to 0.2 µM under setting [2].
For `Cc1cc(F)ccc1Oc1ncc(C(F)(F)F)c(C)c1C(=O)Nc1cccc(S(C)(=N)=O)c1` (stereo not drawn) [Compound 1557, 2-(4-fluoro-2-methylphenoxy)-4-methyl-N-(3-(S-methylsulfonimidoyl)phenyl)-5-(trifluoromethyl)nicotinamide], the IC50 was not above 0.02 µM under setting [1] and not above 0.02 µM under setting [2].
As to `Cc1cc(F)ccc1Oc1ncc(Cl)c(C)c1C(=O)Nc1cccc(S(C)(=N)=O)c1` (stereo not drawn) [Compound 1558, 5-chloro-2-(4-fluoro-2-methylphenoxy)-4-methyl-N-(3-(S-methylsulfonimidoyl)phenyl)nicotinamide], the IC50 is, setting by setting: under setting [1], not above 0.02 µM; under setting [2], not above 0.02 µM.
With `Cc1nc(F)ccc1Oc1ncc(C(F)(F)F)c(C)c1C(=O)Nc1cccc([S@](C)(=N)=O)c1` [Compound 1559, (R)-2-((6-fluoro-2-methylpyridin-3-yl)oxy)-4-methyl-N-(3-(S-methylsulfonimidoyl)phenyl)-5-(trifluoromethyl)nicotinamide], the IC50 is not above 0.02 µM under setting [1] and not above 0.02 µM under setting [2].
With `Cc1nc(F)ccc1Oc1ncc(C(F)(F)F)c(C)c1C(=O)Nc1cccc([S@@](C)(=N)=O)c1` [Compound 1560, (S)-2-((6-fluoro-2-methylpyridin-3-yl)oxy)-4-methyl-N-(3-(S-methylsulfonimidoyl)phenyl)-5-(trifluoromethyl)nicotinamide], the IC50 was not above 0.02 µM under setting [1] and not above 0.02 µM under setting [2].
In the case of `COc1cc(C#N)ccc1Oc1ncc(C(F)(F)F)cc1C(=O)Nc1cccc(S(N)(=O)=O)c1` [Compound 1561, 2-(4-cyano-2-methoxyphenoxy)-N-(3-sulfamoylphenyl)-5-(trifluoromethyl)pyridine-3-carboxamide], the IC50 is, setting by setting: under setting [1], not above 0.02 µM; under setting [2], not above 0.02 µM.
For the molecule `COc1cc(C#N)ccc1Oc1ncc(C(F)(F)F)cc1C(=O)Nc1cccc(S(C)(=N)=O)c1` (stereo not drawn) [Compound 1562, 2-(4-cyano-2-methoxyphenoxy)-N-{3-[imino(methyl)oxo-λ^6-sulfanyl]phenyl}-5-(trifluoromethyl)pyridine-3-carboxamide], the IC50 reads like this: under setting [1], not above 0.02 µM; under setting [2], not above 0.02 µM.
Take `CS(=O)(=O)c1cccc(NC(=O)c2cc(C(F)(F)F)cnc2Oc2ccc(OC(F)F)cc2)c1` [Compound 1563, 2-[4-(difluoromethoxy)phenoxy]-N-(3-methylsulfonylphenyl)-5-(trifluoromethyl)pyridine-3-carboxamide]: the IC50 under setting [1] is 0.02 to 0.04 µM and the IC50 under setting [2] is 0.02 to 0.04 µM.
As to `CS(=N)(=O)c1cccc(NC(=O)c2cc(C(F)(F)F)cnc2Oc2ccc(C(F)(F)F)cc2)c1` (stereo not drawn) [Compound 1564, N-[3-(methylsulfonimidoyl)phenyl]-5-(trifluoromethyl)-2-[4-(trifluoromethyl)phenoxy]pyridine-3-carboxamide], the IC50 is 0.04 to 0.2 µM under setting [1] and 0.02 to 0.04 µM under setting [2].
The like results for `Cc1nc(OC2CCC2)ccc1Oc1ncc(C(F)(F)F)cc1C(=O)Nc1cccc(C(N)=O)c1` [Compound 1565, N-(3-carbamoylphenyl)-2-[[6-(cyclobutoxy)-2-methyl-3-pyridyl]oxy]-5-(trifluoromethyl)pyridine-3-carboxamide] were, in that order, 0.2 to 0.5 µM and 0.2 to 0.5 µM.
On to `Cc1nc(OC2CCC2)ccc1Oc1ncc(C(F)(F)F)cc1C(=O)Nc1ccc(C(N)=O)cc1` [Compound 1566, N-(4-carbamoylphenyl)-2-[[6-(cyclobutoxy)-2-methyl-3-pyridyl]oxy]-5-(trifluoromethyl)pyridine-3-carboxamide], for which the IC50 reads like this: under setting [1], 0.2 to 0.5 µM; under setting [2], 0.2 to 0.5 µM.
For `COc1c(Oc2ncc(Br)cc2C(=O)Nc2cccc(S(C)(=N)=O)c2)ccc(F)c1F` (stereo not drawn) [Compound 1567, 5-bromo-2-(3,4-difluoro-2-methoxy-phenoxy)-N-[3-(methylsulfonimidoyl)phenyl]pyridine-3-carboxamide], the IC50 runs as follows: under setting [1], not above 0.02 µM; under setting [2], not above 0.02 µM.
